Reference: the NIST ThermoML archive (doi:10.1021/je800157v)

Assays:
[1] = 101 kPa, Liquid
[2] = xn = mol fraction of the nth substance listed; conditions: 101 kPa, Liquid

c1ccccc1 [benzene]
[1]
Conditions	mass density [kg/m3]
288.15 K	884.25
293.15 K	878.92
298.15 K	873.58
303.15 K	868.23
308.15 K	862.87
313.15 K	857.5

c1ccccc1 [benzene] + CCC(C)O
[2], x2 = 0
Conditions	mass density [kg/m3]
288.15 K	884.25
293.15 K	878.92
298.15 K	873.58
303.15 K	868.23
308.15 K	862.87
313.15 K	857.5

CCC(C)O (stereo not given) [butan-2-ol]
[1]
Conditions	mass density [kg/m3]
288.15 K	810.64
293.15 K	806.59
298.15 K	802.47
303.15 K	798.27
308.15 K	793.97
313.15 K	789.59

CCC(C)O (stereo not given) [butan-2-ol] + ClC(Cl)Cl
[2], x1 = 1
Conditions	mass density [kg/m3]
288.15 K	810.64
293.15 K	806.59
298.15 K	802.47
303.15 K	798.27
308.15 K	793.97
313.15 K	789.59

ClC(Cl)Cl [trichloromethane]
[1]
Conditions	mass density [kg/m3]
288.15 K	1498.08
293.15 K	1488.64
298.15 K	1479.15
303.15 K	1469.61
308.15 K	1460.03
313.15 K	1450.41
